Laboratory results from paper PMC10951269, “5-HT_FAsTR: a versatile, label-free, high-throughput, fluorescence-based microplate assay to quantify serotonin transport and release” (Scientific Reports, 2024).
Read-outs that look alike come from different tables or passages of the source.

Tests used:
hSERT mutant I172M [1] = conditions: fluorescence assay; 10 µM 5-HT; N = 3
Description: (§1) For the uptake inhibition assay determining IC50 values, the pre-incubation solutions contained 12 increasing concentrations of an hSERT or OCT2 inhibitor. […] The change in fluorescence was determined 10 min after adding the incubation solution. […] The raw data was fitted to a non-linear fit in GraphPad Prism ([inhibitor] vs response (three parameters) for hSERT data and [inhibitor] vs response – variable slope (four parameters) for hOCT2 data) and normalized to the obtained top and bottom plateau as follows: rawdata-bottomplateau/topplateau-bottomplateau . The same non-linear fit of the normalized data was used to calculate logIC50 and IC50 values. IC50 values were converted to pKi values using the Cheng-Prusoff equation[33]. pKi=pIC50/1+[S]/Km

hSERT [2] = target: T1, hSERT (Homo sapiens, UniProt P31645); assay: 5-HT_FAsTR fluorescence efflux assay
Description: The efflux inducing drug was added at time point 0 and a time window showing efflux in the linear range was chosen for further analysis. The fluorescence intensity measured in response to the drug was normalized to the mean fluorescence intensity measured 2.5 min, 5 min and 7.5 min before the addition of the drug. A simple linear regression was performed with GraphPad Prism for the time window showing efflux in the linear range and the slope of the linear decrease in fluorescence in response to the drug was plotted against increasing drug concentrations. A non-linear fit ([Inhibitor] vs. response (three parameters), GraphPad Prism) was used to calculate EC50 as well as the top and bottom plateau. The drug-induced efflux was calculated by subtracting the top plateau from the bottom plateau.

hSERT mutant I172M [3] = conditions: radiotracer assay; 10 µM [3H]5-HT; N = 3
Description: The uptake was terminated by washing the cells with ice-cold PBSCM, 50 µl Microscint (Perkin Elmer) was added and radioactivity was counted in a TopCounter microplate scintillation counter approximately one hour after microscint addition. The raw data was fitted to a non-linear fit in GraphPad Prism ([inhibitor] vs response (three parameters)) and normalized to the obtained top and bottom plateau as follows: rawdata-bottomplateau/topplateau-bottomplateau . The same non-linear fit of the normalized data was used to calculate logIC50 and IC50 values.

hSERT [4] = target: T1, hSERT; format: cell-based; design: expressed in transfected cells; host or cells: HEK293MSR cells stably expressing cytoplasmic iSeroSnFR; conditions: 5 µM inhibitor, control experiment
Text: Data were fitted in Graphpad Prism to the in-built model for Michaelis–Menten kinetics using robust non-linear regression to calculate Km and Vmax.

hOCT2 = target: T2, hOCT2 (Homo sapiens, UniProt O15244); assay: 5-HT_FAsTR fluorescence uptake inhibition assay, hOCT2; format: cell-based; conditions: corresponding to the pKi
T2 sequence (O15244 1-555): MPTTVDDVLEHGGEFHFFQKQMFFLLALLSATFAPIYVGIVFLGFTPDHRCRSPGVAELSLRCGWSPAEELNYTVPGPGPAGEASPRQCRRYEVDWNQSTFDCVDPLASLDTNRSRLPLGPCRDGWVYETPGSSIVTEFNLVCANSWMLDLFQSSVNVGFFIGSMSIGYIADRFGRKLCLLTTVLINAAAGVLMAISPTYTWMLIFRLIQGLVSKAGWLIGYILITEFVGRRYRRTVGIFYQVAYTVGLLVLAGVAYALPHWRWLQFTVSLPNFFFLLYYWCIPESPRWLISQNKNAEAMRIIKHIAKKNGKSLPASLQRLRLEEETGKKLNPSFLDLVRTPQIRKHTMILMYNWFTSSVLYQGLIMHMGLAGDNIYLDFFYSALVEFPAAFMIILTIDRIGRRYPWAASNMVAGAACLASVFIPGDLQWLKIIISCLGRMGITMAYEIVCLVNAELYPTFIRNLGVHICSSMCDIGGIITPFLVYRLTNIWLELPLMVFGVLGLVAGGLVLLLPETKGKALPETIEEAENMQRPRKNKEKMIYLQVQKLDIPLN
Description: as §1

iSeroSnFR = assay: Dose-response of 5-HT binding to extracellular membrane-tethered iSeroSnFR; format: cell-based; conditions: HEK293MSR cells, not saturated at 10 mM 5-HT
Text: Error bars represent SEM.
(2 pictures or pasted objects on this page, not shown here)

NCCc1c[nH]c2ccc(O)cc12 = assay: cells, lysate or membranes; conditions: other: HEK293MSR_iSeroSnFR cells with hSERT, 10 min, N = 7, pH 7.4
[5] = substrate: NCCc1c[nH]c2ccc(O)cc12; assay: cells, lysate or membranes; conditions: other: hOCT2-transfected cells; non-specific uptake determined with imipramine; N = 3; pH 7.4

T1 sequence (P31645 whole entry): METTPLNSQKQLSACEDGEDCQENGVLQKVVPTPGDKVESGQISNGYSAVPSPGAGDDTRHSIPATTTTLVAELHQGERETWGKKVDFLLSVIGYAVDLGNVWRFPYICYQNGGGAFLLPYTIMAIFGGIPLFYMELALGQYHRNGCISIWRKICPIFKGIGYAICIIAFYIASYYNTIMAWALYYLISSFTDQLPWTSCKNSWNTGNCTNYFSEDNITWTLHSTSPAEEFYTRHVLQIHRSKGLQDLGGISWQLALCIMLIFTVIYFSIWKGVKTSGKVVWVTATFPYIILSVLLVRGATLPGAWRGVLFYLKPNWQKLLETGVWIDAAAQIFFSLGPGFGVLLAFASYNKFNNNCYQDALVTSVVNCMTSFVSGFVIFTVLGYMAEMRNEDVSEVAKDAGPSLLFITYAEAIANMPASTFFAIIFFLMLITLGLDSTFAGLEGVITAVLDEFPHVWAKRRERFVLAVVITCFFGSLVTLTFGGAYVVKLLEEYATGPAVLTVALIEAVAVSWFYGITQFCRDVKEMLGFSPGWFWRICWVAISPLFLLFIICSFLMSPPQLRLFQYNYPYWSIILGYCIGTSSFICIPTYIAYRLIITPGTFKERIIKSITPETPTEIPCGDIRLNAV

In the case of `CNC(C)Cc1ccc2c(c1)OCO2` (stereo not drawn) [MDMA], the “fold decrease in potency, hSERT I172M compared to wild type (IC50 ratio)” value (hSERT mutant I172M [1]) is reported as “did not show any change”, the EC50 (hSERT [2]) is reported as 6.22 ± 1.62 µM and the “fluorescence change ± SEM (drug-induced efflux rate)” value (hSERT [2]; hSERT not present (empty vector), preloaded with 5-HT, N = 3) is reported as 0.06 ± 0.01 %/minute. For the same molecule, the “maximum fluorescence change ± SEM (drug-induced efflux rate)” value (hSERT [2]; hSERT-transfected cells preloaded with 10 µM 5-HT, N = 6) was 0.66 ± 0.13 %/minute, the “release of 5-HT relative to background levels from passive diffusion” value (hSERT [2]; hSERT-transfected cells vs background) was “at least 11 fold” and the “fold decrease in potency, hSERT I172M compared to wild type (IC50 ratio)” value (hSERT mutant I172M [3]) was “did not show any change”.

`C[Se+](C)CCCN1c2ccccc2CCc2ccc(Cl)cc21` [MJ1-53] was tested, and the “effect of blocking the serotonin transporter on 5-HT uptake (fluorescence intensity)” value (hSERT [4]) was “abolishes 5-HT uptake” and the Ki (hOCT2) was 0.164 µM.

With `NCCc1c[nH]c2ccc(O)cc12` [5-HT, 5-hydroxytryptamine] the EC50 (iSeroSnFR) was ≥ 1520 µM.

Molecule hSERT (Homo sapiens) has a Km (NCCc1c[nH]c2ccc(O)cc12; non-specific uptake determined with MJ1-53) of 1.25 ± 0.48 µM and a Km (NCCc1c[nH]c2ccc(O)cc12; non-specific uptake determined with S-Citalopram) of 1.79 ± 0.19 µM.

B1: hOCT2 (Homo sapiens) (protein)
chain: T2 sequence (O15244 1-555)
With B1 the Km [5] was 183.6 ± 65.18 µM.
